Results as given in patent US8106055B2, “Substituted amide compounds” (Gruenenthal GmbH, priority 2007, dated 2012).

Legend:
[1] = target: T1, serotonin (5-HT) reuptake (Rattus norvegicus, UniProt P31652); assay: Inhibition of serotonin (5HT) reuptake in synaptosomes from rat brain; format: biochemical; settings: for 5-HT (inhibition of reuptake of serotonin, % inhibition): test concentration of 10 μM; for inhibition at 10 µM / 5-HT reuptake: Table 2, test concentration 10 μM; for inhibition at 10 µM: read-out: 5-HT reuptake
T1 construct: synaptosomes are freshly isolated from areas of the rat brain; from tissue; host or cells: rat brain synaptosomes (P2 fraction)
T1 sequence (P31652 whole entry): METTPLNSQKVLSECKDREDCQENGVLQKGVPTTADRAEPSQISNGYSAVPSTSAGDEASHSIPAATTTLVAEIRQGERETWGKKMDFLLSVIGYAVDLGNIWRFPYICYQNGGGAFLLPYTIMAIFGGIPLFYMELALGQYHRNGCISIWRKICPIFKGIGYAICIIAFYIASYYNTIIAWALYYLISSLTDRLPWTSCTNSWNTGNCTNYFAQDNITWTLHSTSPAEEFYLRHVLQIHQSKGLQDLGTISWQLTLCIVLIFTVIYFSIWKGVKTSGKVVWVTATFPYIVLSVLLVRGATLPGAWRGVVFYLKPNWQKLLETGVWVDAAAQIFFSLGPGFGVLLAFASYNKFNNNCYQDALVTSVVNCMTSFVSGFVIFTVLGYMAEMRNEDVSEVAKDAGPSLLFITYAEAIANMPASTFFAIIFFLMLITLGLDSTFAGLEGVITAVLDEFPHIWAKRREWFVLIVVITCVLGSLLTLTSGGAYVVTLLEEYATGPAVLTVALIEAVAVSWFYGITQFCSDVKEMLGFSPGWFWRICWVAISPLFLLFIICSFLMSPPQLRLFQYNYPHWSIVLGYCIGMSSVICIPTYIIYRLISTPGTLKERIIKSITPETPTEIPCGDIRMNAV
Procedure, shortened: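 Compounds screened at 10 μM and reported as percent inhibition of serotonin uptake. Uptake measured in a freshly prepared P2 synaptosomal fraction from rat brain.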

[2] = target: T2, bradykinin 1 receptor (B1R) of the rat (Rattus norvegicus, UniProt P97583); assay: Functional investigation on the rat bradykinin 1 receptor (B1R), Ca2+ FLIPR assay in CHO K1 rB1R cells; format: cell-based; settings: test substance 10 μM, Ca2+ FLIPR, CHO K1 rB1R cells; for B1R Ant. r [10 μM] % Inhibition: B1R antagonism rat; for inhibition at 10 µM: CHO-K1, B1R antagonism rat, read-out: B1R Ant. r [10 μM] % Inhibition
T2 construct: expressed in transfected cells; host or cells: CHO K1 cells
T2 sequence (P97583 1-337): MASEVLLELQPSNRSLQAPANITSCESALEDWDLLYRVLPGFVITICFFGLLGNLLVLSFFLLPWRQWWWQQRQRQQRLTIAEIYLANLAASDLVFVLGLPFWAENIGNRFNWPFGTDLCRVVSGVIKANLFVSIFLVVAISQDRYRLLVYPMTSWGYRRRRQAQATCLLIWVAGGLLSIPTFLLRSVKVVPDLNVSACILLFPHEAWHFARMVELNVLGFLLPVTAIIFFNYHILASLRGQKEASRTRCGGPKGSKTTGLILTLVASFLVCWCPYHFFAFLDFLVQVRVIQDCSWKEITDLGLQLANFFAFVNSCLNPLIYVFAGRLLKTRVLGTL
Procedure, shortened: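 Peak Ca2+-dependent fluorescence in B1R-transfected CHO K1 cells measures antagonism of an EC80 agonist challenge given 10-20 min after compound. Agonist is Lys-Des-Arg9-bradykinin for human, Des-Arg9-bradykinin for rat receptor.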

Structure (SMILES) | 5-HT (inhibition of reuptake of serotonin, % inhibition) [1] | B1R Ant. r [10 μM] % Inhibition [2] | inhibition at 10 µM [1] | inhibition at 10 µM [2] | 5-HT reuptake [1]
CN(C)C(c1cccc(F)c1)C1CCC(CNC(=O)COC2CCN(S(=O)(=O)c3ccc(F)cc3)C2)CC1 (stereo not drawn) [Example 275] | 80% | 17% |  |  | 
CN(C)C(c1cccs1)C1CCC(CNC(=O)COC2CCN(S(=O)(=O)c3ccccc3)CC2)CC1 (stereo not drawn) [Example 276] | 93% | 14% |  |  | 
CN(C)C(c1cccc(F)c1)C1CCC(NC(=O)COC2CCCN(S(=O)(=O)c3ccccc3)C2)CC1 (stereo not drawn) [Example 277] | 93% | 4% |  |  | 
O=C(COCCN(C1CC1)S(=O)(=O)c1c(Cl)cc(Cl)cc1Cl)NC1CCC(C(c2ccccc2)N2CCCC2)CC1 (stereo not drawn) [Example 603, 2-{2-[cyclopropyl-(2,4,6-trichlorobenzenesulfonyl)-amino]-ethoxy}-N-[4-(phenylpyrrolidin-1-ylmethyl)-cyclohexyl]-acetamide] |  |  | 74% | 85% | 
CN(CCOCC(=O)NC1CCC(C(c2ccccc2)N2CCCC2)CC1)S(=O)(=O)c1c(Cl)cc(Cl)cc1Cl (stereo not drawn) [Example 606, 2-{2-[methyl-(2,4,6-trichlorobenzenesulfonyl)-amino]-ethoxy}-N-[4-(phenylpyrrolidin-1-yl-methyl)-cyclohexyl]-acetamide] |  |  | 85% | 37% | 
CN(C)C(c1ccccc1)C1CCC(NC(=O)COC2CCCN(S(=O)(=O)c3c(Cl)cc(Cl)cc3Cl)C2)CC1 (stereo not drawn) [Example 608, N-[4-(dimethylaminophenylmethyl)-cyclohexyl]-2-[1-(2,4,6-trichlorobenzenesulfonyl)-piperidin-3-yloxy]-acetamide] |  |  | 81% | 34% | 
CN(C)C(c1ccccc1)C1CCC(NC(=O)COC2CCN(S(=O)(=O)c3c(Cl)cc(Cl)cc3Cl)C2)CC1 (stereo not drawn) [Example 609, N-[4-(dimethylaminophenylmethyl)-cyclohexyl]-2-[1-(2,4,6-trichlorobenzenesulfonyl)-pyrrolidin-3-yloxy]-acetamide] |  |  | 86% | 32% | 
CN(C)C(c1ccccc1)C1CCC(NC(=O)COCC2CCCN2S(=O)(=O)c2c(Cl)cc(Cl)cc2Cl)CC1 (stereo not drawn) [Example 611, N-[4-(Dimethylaminophenylmethyl)-cyclohexyl]-2-[1-(2,4,6-trichlorobenzenesulfonyl)-pyrrolidin-2-ylmethoxy]-acetamide] |  | 68% |  |  | 84 % inhibition
CN(C)C(c1ccccc1)C1CCC(NC(=O)COCC2CCCN2S(=O)(=O)c2c(Cl)cc(Cl)cc2Cl)CC1 (stereo not drawn) [Example 612, N-[4-(Dimethylaminophenylmethyl)-cyclohexyl]-2-[1-(2,4,6-trichlorobenzenesulfonyl)-pyrrolidin-2-ylmethoxy]-acetamide] |  | 64% |  |  | 84 % inhibition
CN(C)C(c1ccccc1)C1CCC(NC(=O)COCC2CCCN2S(=O)(=O)c2c(Cl)cc(Cl)cc2Cl)CC1 (stereo not drawn) [Example 613, N-[4-(Dimethylaminophenylmethyl)-cyclohexyl]-2-[1-(2,4,6-trichlorobenzenesulfonyl)-pyrrolidin-2-ylmethoxy]-acetamide] |  | 34% |  |  | 62 % inhibition
CN(C)C(c1ccccc1)C1CCC(CNC(=O)COCCN(C)S(=O)(=O)c2c(Cl)cc(Cl)cc2Cl)CC1 (stereo not drawn) [Example 614, N-[4-(dimethylaminophenylmethyl)-cyclohexylmethyl]-2-{2-[(2,4,6-trichlorobenzenesulfonyl)-methylamino]-ethoxy}-acetamide] |  | 29% | 90% |  | 
CN(C)C(c1ccccc1)C1CCC(NC(=O)COCCN(C)S(=O)(=O)c2c(Cl)cc(Cl)cc2Cl)C1 (stereo not drawn) [Example 615, N-[3-(dimethylaminophenylmethyl)-cyclopentyl]-2-{2-[(2,4,6-trichlorobenzenesulfonyl)-methylamino]-ethoxy}-acetamide] |  |  | 81% | 26% | 
